# From US6903133B2, “Anticancer compounds” (Plantaceutica, Inc., priority 2002, dated 2005)
# System: KB cells
# Test: cytotoxicity against KB cells (sulforhodamine B assay)
# Assay type: cell-based
# Settings: KB cells (nasopharyngeal carcinoma cells); result in words only
# Experimental: Podophyllotoxin derivatives of this invention can be preliminarily screened for their efficacy in treating cancer by in vitro assays. For example, podophyllotoxin derivatives can be tested for their cytotoxicity against KB cells (nasopharyngeal carcinoma). More specifically, a test compound can be added to a culture of KB cells and its IC50 (i.e., the concentration of the test compound which achieves a half-maximal inhibition of cell growth) is determined using the sulforhodamine B (a protein binding dye) assay as described in J.N.C.I. (1990) 82: 1107. The podophyllotoxin derivatives of this invention are also tested for their abilitives to inhibit DNA topoisomerase II in vitro as described in Cho et al. (1996 J. Med. Chem. 39: 1396) and to stimulate protein-linked DNA breaks (PLDB) in KB cells as described in Rowe et al. (1986 Cancer Res. 46:2021). DNA topoisomerase II is a well known target for cancer treatment drugs. See, e.g., MacDonald et al. (1991) DNA Topoisomerase in Cancer; Oxford University Press: New York.
# A number of compounds of this invention were evaluated for cytotoxicity against KB cells, which are nasopharyngeal carcinoma cells. They were also tested for stimulation of cellular protein-linked DNA breaks (PLDB) using etoposide as a positive control. Etopside is a widely-used antineoplastic agent, see, e.g., Zhang et al. (1994) J. Med. Chem. 37: 446.
row,SMILES,IC50 values against KB cells
1,"CCOC(=O)c1sc(N[C@@H]2c3cc4c(cc3[C@@H](c3cc(OC)c(O)c(OC)c3)[C@H]3C(=O)OC[C@H]32)OCO4)nc1C [Compound 45, 4′-O-demethyl-4β-(5″-ethoxycarbonyl-4″-methyl-2″-thiazolylamino)-4-desoxypodophyllotoxin]",unexpectedly low
2,"COc1cc([C@@H]2c3cc4c(cc3[C@@H](Nc3nc(COC(C)=O)cs3)[C@@H]3COC(=O)[C@H]23)OCO4)cc(OC)c1O [Compound 36, 4′-O-demethyl-4β-[4″-(methyl-O-acetyl)-2″-thiazolylamino]-4-desoxypodophyllotoxin]",unexpectedly low
3,"COc1cc([C@@H]2c3cc4c(cc3[C@@H](Nc3ncc([N+](=O)[O-])s3)[C@@H]3COC(=O)[C@H]23)OCO4)cc(OC)c1O [Compound 49, 4′-O-demethyl-4β-(5″-nitro-2″-thiazolylamino)-4-desoxypodophyllotoxin]",unexpectedly low
4,CCOC(=O)c1ccc(N[C@@H]2c3cc4c(cc3[C@@H](c3cc(OC)c(O)c(OC)c3)[C@H]3C(=O)OC[C@H]32)OCO4)nc1 [Compound 39],unexpectedly low
